# Experiment: recombinant barcode read abundance after kanamycin selection (control-corrected) (log10(CPM+1)); higher = more efficient recombination; sequences stand for … in AGTGCAGAGAAAATCGGCCAGTTTTCTCTGCCTGCAGTCCGCATGCCGT…AGATTTATGCAGCGGACTGCCTTTCTCCCAAAGTGATAAACCGGACAGTATCATGGACCGGTTTTCCCGGTAATCCGTATTTGCAAGGTTGGTTTCACT; site = the 11-nt target
# In short: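 Duplicate cultures were plated either on chloramphenicol/ampicillin LB agar, serving as control, or on chloramphenicol/ampicillin/kanamycin with 0.1 mM IPTG. These came from a pooled E. coli library co-electroporated with a donor plasmid, each member pairing a target with an IS621 bridge RNA target-binding loop. Recombination efficiency equals averaged, control-corrected counts per million of recombinant-junction barcodes. It is listed as log10(CPM+1).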
# 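Note: IS621 recombinase and bridge RNA in Escherichia coli cells.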
row,Sequence,recombinant barcode read abundance (log10)
1,TCCTTAGCTTGGGTTCTAACCTGTTGCCT (site TCATTCGCTAG),0.0127
2,TCCTTAGCTTGGGTTCTAACCTGTTGCCT (site TCCTTAGCTAG),0.579
3,TCGAAACCTTGGGTTCTAACCTGTTGCCT (site TCGAAACCTAG),0.625
4,TCGAAACCTTGGGTTCTAACCTGTTGCCT (site TCGAACCCTAG),0.0112
5,TCGAAACCTTGGGTTCTAACCTGTTGCCT (site TCGAAGCCTAG),0.132
6,TCGAAACCTTGGGTTCTAACCTGTTGCCT (site TCGAATCCTAG),0.0362
7,TCGAAGACTTGGGTTCTAACCTGTTGCCA (site CCGAAGACTAG),0.14
8,TCGAAGACTTGGGTTCTAACCTGTTGCCA (site TCGAAGACTTG),0.177
9,TCGAGTACTTGGGTTCTAACCTGTTGCCT (site TCGAGTACTAG),0.274
10,TCGAGTACTTGGGTTCTAACCTGTTGCCT (site TCGAGTCCTAG),0.168
11,TCGAGTACTTGGGTTCTAACCTGTTGCCT (site TCGAGTGCTAG),0.034
12,TCGAGTACTTGGGTTCTAACCTGTTGCCT (site TCGAGTTCTAG),0.404
13,TCGATGTCTTGGGTTCTAACCTGTTGCCT (site TCGAATTCTAG),0.174
14,TCGATGTCTTGGGTTCTAACCTGTTGCCT (site TCGATGTCTAG),0.706
15,TCGCAAGCTTGGGTTCTAACCTGTTGCCT (site TCGCAAGCTAG),0.559
16,TCGCAAGCTTGGGTTCTAACCTGTTGCCT (site TCTCCAGCTAG),0.43
17,TCGCACCCTTGGGTTCTAACCTGTTGCGA (site TCGAACCCTTC),1.28
18,TCGCACCCTTGGGTTCTAACCTGTTGCGA (site TCGCACCCTTC),0.571

row,Sequence,recombinant barcode read abundance (log10)
1,TCGCACCCTTGGGTTCTAACCTGTTGCGA (site TCGGACCCTTC),0.369
2,TCGCACCCTTGGGTTCTAACCTGTTGCGA (site TCGTACCCTTC),0.514
3,TCGCACGCTTGGGTTCTAACCTGTTGCCT (site TCGCACGCTAG),0.205
4,TCGCACGCTTGGGTTCTAACCTGTTGCCT (site TCTCACGCTAG),0.541
5,TCGCACTCTTGGGTTCTAACCTGTTGCCT (site TCACACTCTAG),1.22
6,TCGCACTCTTGGGTTCTAACCTGTTGCCT (site TCCCACTCTAG),0.22
7,TCGCACTCTTGGGTTCTAACCTGTTGCCT (site TCGCACTCTAG),0.0694
8,TCGCACTCTTGGGTTCTAACCTGTTGCCT (site TCTCACTCTAG),0.117
9,TCGCACTCTTGGGTTCTAACCTGTTGCTA (site TCGCACACTTA),0.262
10,TCGCACTCTTGGGTTCTAACCTGTTGCTA (site TCGCACTCTTA),0.911
11,TCGCCTACTTGGGTTCTAACCTGTTGCCT (site TCGCCTACTAG),0.049
12,TCGCCTACTTGGGTTCTAACCTGTTGCCT (site TCGCCTGCTAG),0.396
13,TCGCCTTCTTGGGTTCTAACCTGTTGCCT (site TAGCCTTCTAG),0.482
14,TCGCCTTCTTGGGTTCTAACCTGTTGCCT (site TCGCCTTCTAG),0.364
15,TCGCCTTCTTGGGTTCTAACCTGTTGCCT (site TGGCCTTCTAG),0.654
16,TCGCCTTCTTGGGTTCTAACCTGTTGCCT (site TTGCCTTCTAG),0.0934
17,TCGCGGCCTTGGGTTCTAACCTGTTGCCT (site ACGCGGCCTAG),0.153
18,TCGCGGCCTTGGGTTCTAACCTGTTGCCT (site CCGCGGCCTAG),0.105

# Reference: the supplement of paper PMC11208160
